{"source": "patent US11920139B2", "about": "“Regulated expression of antigen and/or regulated attenuation to enhance vaccine immunogenicity and/or safety” (priority 2007, dated 2024)", "key": {"[1]": {"system": "Salmonella Typhi strain χ9633(pYA4088)", "experiment": "Minimum inhibitory concentrations of antibiotics", "type": "cell-based", "settings": "for MIC: Salmonella enterica, TYPHI, read-out: Minimum inhibitory concentration", "description": "(§1) Master seed and working seed banks of each vaccine organism in separate vials have been prepared for frozen storage in vegetable-based cryopreservative. […] Antibiotic sensitivity testing has confirmed that these strains are sensitive to ciprofloxacin, ampicillin, ceftriaxone, trimethoprim/sulfamethoxazole (Table 15). Ampicillin, ciprofloxacin, ceftriaxone and trimethoprim/sulfamethoxazole are typically tested for minimum inhibitory concentrations (MICs) for Salmonella."}, "[2]": {"system": "Salmonella Typhi strain χ9639(pYA4088)", "experiment": "microbe, parasite or virus in culture", "type": "cell-based", "settings": "for MIC: Salmonella enterica, TYPHI, read-out: Minimum inhibitory concentration", "description": "(§2) Master seed and working seed banks of each vaccine organism in separate vials have been prepared for frozen storage in vegetable-based cryopreservative. […] Ampicillin, ciprofloxacin, ceftriaxone and trimethoprim/sulfamethoxazole are typically tested for minimum inhibitory concentrations (MICs) for Salmonella."}, "[3]": {"system": "Salmonella Typhi strain χ9640(pYA4088)", "experiment": "microbe, parasite or virus in culture", "type": "cell-based", "settings": "for MIC: Salmonella enterica, TYPHI, read-out: Minimum inhibitory concentration", "description": "as §2"}, "[4]": {"system": "the three vaccine strains (RASV-Sp)", "experiment": "Antibiotic sensitivity testing of the vaccine strains", "type": "cell-based, Salmonella Typhi", "description": "as §1"}}, "data": [{"compound": "trimethroprim-sulfamethoxazole", "values": [{"measurement": "Minimum inhibitory concentration", "setting": "[1]", "result": "<20", "unit": "µg/mL"}, {"measurement": "Minimum inhibitory concentration", "setting": "[2]", "result": "<20", "unit": "µg/mL"}, {"measurement": "Minimum inhibitory concentration", "setting": "[3]", "result": "<20", "unit": "µg/mL"}, {"measurement": "antibiotic sensitivity", "setting": "[4]", "result": "sensitive"}]}, {"compound": "CC1(C)S[C@@H]2[C@H](NC(=O)[C@H](N)c3ccccc3)C(=O)N2[C@H]1C(=O)O", "note": "[ampicillin]", "values": [{"measurement": "MIC", "setting": "[1]", "result": "< 2", "unit": "µg/mL"}, {"measurement": "MIC", "setting": "[2]", "result": "< 2", "unit": "µg/mL"}, {"measurement": "MIC", "setting": "[3]", "result": "< 2", "unit": "µg/mL"}, {"measurement": "antibiotic sensitivity", "setting": "[4]", "result": "sensitive"}]}, {"compound": "O=C(O)c1cn(C2CC2)c2cc(N3CCNCC3)c(F)cc2c1=O", "note": "[ciprofloxacin]", "values": [{"measurement": "MIC", "setting": "[1]", "result": "< 0.25", "unit": "µg/mL"}, {"measurement": "MIC", "setting": "[2]", "result": "< 0.25", "unit": "µg/mL"}, {"measurement": "MIC", "setting": "[3]", "result": "< 0.25", "unit": "µg/mL"}, {"measurement": "antibiotic sensitivity", "setting": "[4]", "result": "sensitive"}]}, {"compound": "CO/N=C(\\C(=O)N[C@@H]1C(=O)N2C(C(=O)O)=C(CSc3nc(=O)c(=O)[nH]n3C)CS[C@H]12)c1csc(N)n1", "note": "[ceftriaxone]", "values": [{"measurement": "MIC", "setting": "[1]", "result": "< 0.25", "unit": "µg/mL"}, {"measurement": "MIC", "setting": "[2]", "result": "< 1", "unit": "µg/mL"}, {"measurement": "MIC", "setting": "[3]", "result": "< 1", "unit": "µg/mL"}, {"measurement": "antibiotic sensitivity", "setting": "[4]", "result": "sensitive"}]}]}
